Reference: paper PMC10477861, “Efficient Mining of Anticancer Peptides from Gut Metagenome” (Advanced Science, 2023)

Legend:
Settings in all cases: 25 µM pACP, 24 h, maintenance medium 1% FBS, ratio of viability to vehicle (PBS), at least three technical repetitions
MDA-MB-453 = assay: MTT primary screening of anticancer activity, MDA-MB-453; assay type: cell-based
Outline: (§1)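 Cultures grown to 60% confluence; complete medium replaced by 1% FBS maintenance medium; peptide added at 25 µM final; incubated 24 h; viability assessed by MTT.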

MDA-MB-231 = assay: MTT primary screening of anticancer activity, MDA-MB-231; assay type: cell-based
Outline: as §1

B16 = assay: MTT primary screening of anticancer activity, B16; assay type: cell-based, Mouse
Outline: as §1

LCC = assay: MTT primary screening of anticancer activity, LCC; assay type: cell-based
Outline: as §1

MCF7 = assay: MTT primary screening of anticancer activity, MCF7; assay type: cell-based
Outline: as §1

CT26 = assay: MTT primary screening of anticancer activity, CT26; assay type: cell-based, Murine
Outline: as §1

T47D = assay: MTT primary screening of anticancer activity, T47D; assay type: cell-based
Outline: as §1

SK-BR-3 = assay: MTT primary screening of anticancer activity, SK-BR-3; assay type: cell-based
Outline: as §1

MDA-MB-468 = assay: MTT primary screening of anticancer activity, MDA-MB-468; assay type: cell-based
Outline: as §1

BT474 = assay: MTT primary screening of anticancer activity, BT474; assay type: cell-based
Outline: as §1

EFM192A = assay: MTT primary screening of anticancer activity, EFM192A; assay type: cell-based
Outline: as §1

HCT116 = assay: MTT primary screening of anticancer activity, HCT116; assay type: cell-based, Human
Outline: as §1

Hela = assay: MTT primary screening of anticancer activity, Hela; assay type: cell-based, Human
Outline: as §1

MDA-MB-436 = assay: MTT primary screening of anticancer activity, MDA-MB-436; assay type: cell-based
Outline: as §1

HT29 = assay: MTT primary screening of anticancer activity, HT29; assay type: cell-based, Human
Outline: as §1

Caco2 = assay: MTT primary screening of anticancer activity, Caco2; assay type: cell-based, Human
Outline: as §1

Sequence | Survival rate of cancer cells in primary screening (MDA-MB-453) | Survival rate of cancer cells in primary screening (MDA-MB-231) | Survival rate of cancer cells in primary screening (B16) | Survival rate of cancer cells in primary screening (LCC) | Survival rate of cancer cells in primary screening (MCF7) | Survival rate of cancer cells in primary screening (CT26) | Survival rate of cancer cells in primary screening (T47D) | Survival rate of cancer cells in primary screening (SK-BR-3) | Survival rate of cancer cells in primary screening (MDA-MB-468) | Survival rate of cancer cells in primary screening (BT474) | Survival rate of cancer cells in primary screening (EFM192A) | Survival rate of cancer cells in primary screening (HCT116) | Survival rate of cancer cells in primary screening (Hela) | Survival rate of cancer cells in primary screening (MDA-MB-436) | Survival rate of cancer cells in primary screening (HT29) | Survival rate of cancer cells in primary screening (Caco2)
RLRPVILCKKRRLAAGRKKVGRQKKRKASAEGKEGRSPKKKKDGCW [pACP1739] | 0.18 | 1.00 | 1.00 | 1.00 | 0.28 | 1.00 | 0.40 | 0.53 | 0.39 | 0.21 | 1.00 | 1.00 | 0.16 | 0.51 | 1.00 | 1.00
RPITNVGGFLEVNGKGVKPLHGNKFKCTVSGSFLASGWFTLELERVL [pACP1757] | 1.00 | 1.00 | 0.79 | 1.00 | 1.00 | 1.00 | 0.76 | 1.00 | 1.00 | 1.00 | 1.00 | 1.00 | 1.00 | 1.00 | 1.00 | 1.00
RVYKFVDMIGEIGHGRENHIGSGFDERLCRNGACVDCYGKYLCCRTGDYP [pACP1836] | 1.00 | 1.00 | 1.00 | 1.00 | 1.00 | 1.00 | 1.00 | 1.00 | 0.70 | 1.00 | 1.00 | 0.79 | 1.00 | 1.00 | 0.77 | 1.00
SCRNGKGISSGDRPGKAKTGISLEIGKCSYRNKGKSAENSSVAVV [pACP1869] | 1.00 | 1.00 | 0.79 | 1.00 | 1.00 | 1.00 | 0.68 | 1.00 | 1.00 | 1.00 | 1.00 | 1.00 | 1.00 | 1.00 | 1.00 | 1.00
SPLKGGGLLPPAGFCPRRVLCRLPTGWKKGKPSGQMPLFRIWRKVMVMK [pACP1985] | 0.08 | 0.10 | 0.79 | 1.00 | 0.19 | 0.77 | 0.15 | 0.24 | 0.31 | 0.05 | 0.07 | 1.00 | 0.0132 | 0.0378 | 1.00 | 1.00
SVGKRCKMGKNYKTVPALKGIPLAGGTYNTRNRSGSG [pACP2037] | 1.00 | 1.00 | 0.78 | 1.00 | 1.00 | 1.00 | 0.74 | 1.00 | 1.00 | 1.00 | 1.00 | 1.00 | 1.00 | 1.00 | 1.00 | 1.00
VAHGLDLLDGVVAEGVAAKGDDNTIGLAKRLRHCWNPFCKRPTTH [pACP2160] | 1.00 | 1.00 | 0.80 | 1.00 | 1.00 | 1.00 | 0.79 | 1.00 | 0.70 | 1.00 | 1.00 | 1.00 | 1.00 | 1.00 | 1.00 | 1.00
YCIFFLDKGFPGILADFLCLAGKRTIKLKALKQLIRQQVY [pACP2286] | 1.00 | 1.00 | 0.77 | 1.00 | 0.76 | 1.00 | 0.63 | 1.00 | 1.00 | 0.72 | 1.00 | 1.00 | 1.00 | 1.00 | 1.00 | 1.00
